Values of other authors in patent US5028692A, “Gastrin releasing peptide antagonist” (Merck & Co., Inc., priority 1989, dated 1991).
Peptide text beside a SMILES is read from it.

What was measured:
[1] = system: SCLC cell lines
[2] = system: bombesin-stimulated growth

Compound	inhibition of clonal and mass culture growth [1]	inhibition of bombesin-stimulated growth [2]
CSCC[C@H](NC(=O)[C@H](CC(C)C)NC(=O)CNC(=O)[C@H](Cc1ccc(O)cc1)NC(=O)[C@H](Cc1ccccc1)NC(=O)[C@H](CCCCN)NC(=O)[C@H](CC(N)=O)NC(=O)[C@@H]1CCCN1C(=O)[C@H](CC(=O)O)NC(=O)[C@H](C)NC(=O)[C@@H]1CCC(=O)N1)C(N)=O [physalaemin] (HELM PEPTIDE1{[Glp].A.D.P.N.K.F.Y.G.L.M.[am]}$$$$V2.0)	inhibits the clonal and mass culture growth of SCLC cell lines at picomolar concentrations	
[Leu^14 -.PSI.-CH2 NH-Leu^13 ] bombesin		potent inhibitor
